# From paper PMC12657586, “Therapeutic effect of an MRGPRX2/MRGPRB2 antagonist on LL-37-induced rosacea-like inflammation in mice” (Inflammation Research, 2025)
# Target: T1, MRGPRX2 (Mas-related G protein-coupled receptor X2) (Homo sapiens, UniProt Q96LB1)
# T1 sequence (Q96LB1 1-330): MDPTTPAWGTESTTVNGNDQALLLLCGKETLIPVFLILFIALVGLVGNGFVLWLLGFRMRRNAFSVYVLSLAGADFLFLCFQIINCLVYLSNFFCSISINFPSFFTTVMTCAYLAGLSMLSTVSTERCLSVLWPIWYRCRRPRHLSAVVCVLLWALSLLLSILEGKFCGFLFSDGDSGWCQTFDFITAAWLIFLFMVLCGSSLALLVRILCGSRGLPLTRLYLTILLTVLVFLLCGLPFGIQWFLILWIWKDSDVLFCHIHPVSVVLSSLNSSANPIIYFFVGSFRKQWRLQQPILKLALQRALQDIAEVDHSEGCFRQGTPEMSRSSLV
# Experiment: Fluo-4 calcium flux assay in MRGPRX2-transfected HEK-293 cells, antagonism of LL-37
# Assay type: cell-based
smiles,measurement,value
COC(=O)c1cc2cc(NC(N)=O)ccc2cc1-c1cc2c3c(c(O)ccc3c1)C(C)C(C=O)=C2 (stereo not shown) [GE1111],IC50,12.3 µM
